In one series the test system is human melanocytes. As to conditions: J. Soc. Cosmeti. Chem. 42, 361-368 (1991); cited from earlier work.
Series [1] concerns the target T1, endogenous tyrosinase in melanocytes of human skin explants (Homo sapiens, UniProt P14679).
T1 construct: oxidation of exogenous L-DOPA by endogenous tyrosinase; from tissue; host or cells: human abdominal skin explants from plastic surgery (melanocytes)
T1 sequence (P14679 19-529): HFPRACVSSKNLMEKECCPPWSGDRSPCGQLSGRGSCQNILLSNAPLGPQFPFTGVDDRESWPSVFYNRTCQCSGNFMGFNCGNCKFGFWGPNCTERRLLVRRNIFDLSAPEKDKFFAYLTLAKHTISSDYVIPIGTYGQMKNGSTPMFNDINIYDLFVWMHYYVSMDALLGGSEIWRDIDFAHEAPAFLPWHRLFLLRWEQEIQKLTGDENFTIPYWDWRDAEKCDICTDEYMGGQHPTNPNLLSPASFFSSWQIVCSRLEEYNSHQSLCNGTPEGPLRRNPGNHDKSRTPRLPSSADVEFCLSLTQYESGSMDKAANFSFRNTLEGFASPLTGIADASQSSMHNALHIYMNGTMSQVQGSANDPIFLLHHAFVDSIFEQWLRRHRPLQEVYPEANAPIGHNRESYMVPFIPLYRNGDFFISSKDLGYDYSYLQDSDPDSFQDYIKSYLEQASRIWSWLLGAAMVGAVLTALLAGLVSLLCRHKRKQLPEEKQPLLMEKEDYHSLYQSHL
The series can be described thus: Ex vivo tissue model on human skin explant, histochemical L-DOPA reaction (anti-tyrosinase activity). The settings on record: 0.55% (w/v), with L-DOPA 0.05 M, 15 hours at 37° C. It counts as cell-based.
Description: The oxidation of L-Dopa by the tyrosinase produces, in the melanocytes, a black pigment precursor of melanin which is easily detectable by optical microscopy with white light. The tyrosinase activity is determined by the intensity of the calorimetric reaction obtained.
A positive control and a negative control are also carried out in parallel.
The various products in the study are incubated in the presence of L-DOPA (0.05 M) for 15 hours at 37° C.
After fixing and inclusion in paraffin, the sections are colored with hemalun/eosin/saffron and with cresyl violet, they are then observed in white light by optical microscopy.
The tyrosinase activity is determined by the intensity of the calorimetric reaction obtained.

In another series the test system is isolated tyrosinase. The series can be described thus: In vitro test of the inhibition of isolated tyrosinase (rate of dopachrome formation from L-Dopa, 475 nm). It counts as biochemical. The source says:
It is known that tyrosinase is capable of catalyzing the formation of L-Dopaquinone and then dopachrome from L-Dopa. Now, dopachrome is a colored compound whose appearance is possible to follow by UV visible spectrophotometry at 475 nm. The use of an active capable of modifying the enzymatic activity manifests itself by a variation of the rate of appearance of this colored molecule.
The ratio of the rates of formation of dopachrome enable precisely determining the activations or the inhibitions obtained with the different molecules tested.
The anti-tyrosinase activity was measured, for various concentrations of this composition, by simple dilution with demineralized water.

Series [2] in a line: Organoleptic (smell) and stability tests on storage, 4 weeks at 45° C. The series is classed as physicochemical. As to conditions: pH 6.5, 4 weeks at 45° C. Here is the method:
Organoleptic tests have even been carried out on 5% sodium sulfite solutions or with 10% of a mulberry extract or 10 or with 20% with a lemon extract. These tests were led over 4 weeks at 45° C. at pH 5.5 and 6.5.
Also, organoleptic tests are then carried out on 5% sodium metabisulfite solutions with or without either 20% of a saxifrage extract or 10% of a grapefruit extract. These tests were led over 4 weeks at 45° C. at pH 5.5 and 6.5.
Organoleptic tests were also carried out on 5% potassium sulfite solutions with or without either 20% of a grape extract, or 10% of an oughon extract. It is to be noted that oughon is also called Scutelaria. These tests were led over 4 weeks at 45° C. at pH 5.5 and 6.5.
Organoleptic tests are then carried out on 5% potassium metabisulfite solutions with or without either 10% of a saxifrage extract, or 5% of an oughon extract +10% of a grapefruit extract. These tests were also led over 4 weeks at 45° C. at pH 5.5 and 6.5.

`O=C1O[C@H]([C@@H](O)CO)C(O)=C1O` [ascorbic acid]: in the series on human melanocytes, the “IC50 (concentration for which half of the cells placed in culture are no longer living)” value was 880 µg/mL.

For the compound `Oc1ccc(O)cc1` [hydroquinone], in series [1], the “inhibition of the formation of melanic pigments” value was “totally inhibits”.

In the case of `O=S([O-])S(=O)(=O)[O-].[K+].[K+]` [potassium metabisulfite], the “Results (inhibition) of tyrosinase” value in the series with isolated tyrosinase (concentration level 0.01%) was “more than 90%”; in the series on isolated tyrosinase (concentration level 0.1%), 93.63%; with isolated tyrosinase (concentration level 1%) it was 100%; with isolated tyrosinase (concentration level 10%) it was 100%.

In the case of `O=S([O-])[O-].[K+].[K+]` [potassium sulfite], the “Results (inhibition) of tyrosinase” value with isolated tyrosinase (concentration level 0.01%) is on record as “more than 80%”; in the series on isolated tyrosinase (concentration level 0.1%), 98.10%; in the series with isolated tyrosinase (concentration level 1%), 92.7%; with isolated tyrosinase (concentration level 10%), 100%. Besides, the “smell (organoleptic test)” value in series [2] was “very strong smell”.

`O=S([O-])S(=O)(=O)[O-].[Na+].[Na+]` [sodium metabisulfite]: the “tyrosinase inhibition (in words)” value with isolated tyrosinase (concentration 0.01%) is “almost total”. Besides, the “Results (inhibition) of tyrosinase” value in the series on isolated tyrosinase (concentration level 0.1%), with isolated tyrosinase (concentration level 1%) and in the series with isolated tyrosinase (concentration level 10%) was 100% in each case. The “smell (organoleptic test)” value in series [2] is listed as “very strong smell”.

For `O=S([O-])[O-].[Na+].[Na+]` [sodium sulfite], the “Results (inhibition) of tyrosinase” value is reported as 93.7% with isolated tyrosinase (concentration level 0.01%), 100% with isolated tyrosinase (concentration level 0.1%), 100% with isolated tyrosinase (concentration level 1%) and 100% in the series on isolated tyrosinase (concentration level 10%).

These data come from patent US5989596A, “Compositions comprising a depigmenting agent consisting of sulfites and metabisulfites and plant extracts for use in inhibiting melanogenesis or for depigmenting” (Coletica, priority 1997, dated 1999).
